Among the data in ChEMBL document CHEMBL3868615, “Decahydrobenzoquinolin-5-one sigma receptor ligands: Divergent development of both sigma 1 and sigma 2 receptor selective examples” (Bioorg Med Chem Lett, 2016) are Ki and Ratio Ki values, retold here.

For assay [1], the target named is Sigma non-opioid intracellular receptor 1 (Cavia porcellus, UniProt Q60492). Briefly: Displacement of [3H]pentazocine from guinea pig sigma1 receptor measured after 90 mins by microbeta scintillation counting method. For orientation: Displacement assays read how much labelled ligand stays bound in the presence of the test substance.
Assay [2] deals with Kappa-type opioid receptor (Homo sapiens, UniProt P41145). In words: Displacement of [3H]U69593 from KOR (unknown origin) expressed in HEKT cells measured after 90 mins by microbeta scintillation counting method. It counts as cell-based.
Another assay relates to PC-12. In words: Selectivity ratio of Ki for sigma2 receptor in rat PC12 cells to Ki for guinea pig sigma1 receptor. It is filed as cell-based.
Assay [3] is described as follows: Displacement of [3H]DTG from sigma2 receptor in rat PC12 cells measured after 90 mins by microbeta scintillation counting method. It counts as cell-based. Particulars: pc-12.
The target of assay [4] is T1, 5-hydroxytryptamine receptor 1A (Homo sapiens, UniProt P08908).
T1 sequence (P08908 whole entry): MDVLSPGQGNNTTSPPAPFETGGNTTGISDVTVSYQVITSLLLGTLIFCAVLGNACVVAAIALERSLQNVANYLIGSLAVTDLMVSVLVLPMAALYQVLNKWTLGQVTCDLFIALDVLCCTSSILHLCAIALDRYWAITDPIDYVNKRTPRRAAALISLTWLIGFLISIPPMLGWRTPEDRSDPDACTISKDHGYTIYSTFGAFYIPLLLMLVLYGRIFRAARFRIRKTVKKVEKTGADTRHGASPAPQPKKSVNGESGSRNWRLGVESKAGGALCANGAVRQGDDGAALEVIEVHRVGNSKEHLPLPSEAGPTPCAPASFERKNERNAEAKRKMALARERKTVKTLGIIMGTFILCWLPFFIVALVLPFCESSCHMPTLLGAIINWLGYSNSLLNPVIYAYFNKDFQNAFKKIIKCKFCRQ
In words: Displacement of [3H]Way100635 from human 5-HT1A receptor expressed in CHO cells measured after 90 mins by microbeta scintillation counting method. It counts as cell-based.

The target in another assay is Mu-type opioid receptor (Homo sapiens, UniProt P35372). Briefly: Displacement of [3H]DAMGO from human MOR expressed in HEK cells after 90 mins by microbeta scintillation counting method. It is filed as cell-based, HEK293.
The target in assay [5] is Delta-type opioid receptor (Homo sapiens, UniProt P41143). In words: Displacement of [3H]DADLE from human DOR expressed in HEK cells measured after 90 mins by microbeta scintillation counting method. It is filed as cell-based, HEK293.

The term Ki denotes the equilibrium dissociation constant of an inhibitor or competing ligand from its target. A low value points to tighter binding.

Chain of Mu-type opioid receptor (P35372 whole entry): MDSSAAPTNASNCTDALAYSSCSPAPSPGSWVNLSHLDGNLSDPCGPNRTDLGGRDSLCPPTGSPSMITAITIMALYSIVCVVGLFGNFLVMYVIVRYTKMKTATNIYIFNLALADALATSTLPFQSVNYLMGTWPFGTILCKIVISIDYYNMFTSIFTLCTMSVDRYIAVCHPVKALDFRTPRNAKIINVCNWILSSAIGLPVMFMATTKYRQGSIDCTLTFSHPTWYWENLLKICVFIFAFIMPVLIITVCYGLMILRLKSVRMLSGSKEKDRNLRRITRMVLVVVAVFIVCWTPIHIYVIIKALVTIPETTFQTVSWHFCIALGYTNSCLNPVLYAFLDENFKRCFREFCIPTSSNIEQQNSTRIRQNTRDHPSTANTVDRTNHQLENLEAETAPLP
Chain of Kappa-type opioid receptor (P41145 whole entry): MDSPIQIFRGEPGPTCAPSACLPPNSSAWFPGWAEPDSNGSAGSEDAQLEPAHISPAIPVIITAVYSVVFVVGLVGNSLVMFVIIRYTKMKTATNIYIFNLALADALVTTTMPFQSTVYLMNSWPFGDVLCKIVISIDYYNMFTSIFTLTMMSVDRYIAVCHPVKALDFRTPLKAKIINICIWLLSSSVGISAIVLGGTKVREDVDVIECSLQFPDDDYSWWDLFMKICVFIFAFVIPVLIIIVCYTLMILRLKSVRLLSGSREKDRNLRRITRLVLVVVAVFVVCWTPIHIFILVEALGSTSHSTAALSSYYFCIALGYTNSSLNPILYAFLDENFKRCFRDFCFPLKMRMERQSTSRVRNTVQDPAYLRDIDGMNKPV
Chain of Sigma non-opioid intracellular receptor 1 (Q60492 whole entry): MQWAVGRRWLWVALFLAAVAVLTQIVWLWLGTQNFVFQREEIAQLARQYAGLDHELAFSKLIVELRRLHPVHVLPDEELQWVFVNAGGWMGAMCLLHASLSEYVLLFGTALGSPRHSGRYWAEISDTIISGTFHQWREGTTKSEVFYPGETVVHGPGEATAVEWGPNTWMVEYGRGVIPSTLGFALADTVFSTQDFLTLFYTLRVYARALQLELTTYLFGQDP
Chain of Delta-type opioid receptor (P41143 whole entry): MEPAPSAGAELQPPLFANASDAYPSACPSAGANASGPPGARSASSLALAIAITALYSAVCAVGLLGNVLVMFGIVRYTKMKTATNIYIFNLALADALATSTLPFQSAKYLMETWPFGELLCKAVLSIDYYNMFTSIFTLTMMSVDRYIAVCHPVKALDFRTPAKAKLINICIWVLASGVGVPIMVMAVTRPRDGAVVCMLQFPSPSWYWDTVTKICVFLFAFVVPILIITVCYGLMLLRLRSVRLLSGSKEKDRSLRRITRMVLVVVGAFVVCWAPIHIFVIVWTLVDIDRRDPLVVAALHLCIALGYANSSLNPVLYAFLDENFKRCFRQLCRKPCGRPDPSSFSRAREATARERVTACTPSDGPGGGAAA

As to `CCCN1CC[C@H]2CC(=O)[C@H](CC)[C@H]3CCC[C@@H]1[C@H]23`, the Ki in assay [1] is 0.011 to 0.012 µM; in assay [2], greater than 10 µM; in assay [3], 0.23 to 0.401 µM; in assay [4], 4.5 µM; at Mu-type opioid receptor, greater than 10 µM; in assay [5] it was greater than 10 µM. The Ratio Ki in the assay on PC-12 was 20.9.
